Data as given in paper PMC12212259, “Evaluation of AlphaFold modeling for elucidation of nanobody–peptide epitope interactions” (The Journal of Biological Chemistry, 2025).
Peptide text beside a SMILES is read from it.

Assays:
Nb127 = assay: SPR analysis of 127-tag binding to immobilized Nb127-biotin; details: Biacore T200, Nb127-biotin on streptavidin chip, 127 tag 400-6.25 nM, PBS pH 7.4 + 0.05% P20, 1:1 kinetics binding model
Procedure: (§1) SPR biosensor analysis was conducted on a Biacore T200 instrument (Cytiva) using a Series S Sensor Chip SA (streptavidin; Cytiva, #29104992) to determine Nb–tag binding affinity. All binding analyses were done in degassed SPR running buffer (1X PBS at pH 7.4 plus 0.05% P20). Biotinylated Nbs (Nb6E or Nb127), produced by sortagging reaction, was captured on SA chip where streptavidin is covalently coupled to dextran matrix. Biotinylated Nb (1 μM) was immobilized on flow cell via biotin–streptavidin interaction to reach a target response value of approximately 2000 response units. A separate flow cell was capped with only SPR running buffer to use as a surface control for nonspecific binding.
(§2) Analyte samples (127-tag peptide or mutant-6E peptides) were prepared as serial dilutions in SPR running buffer. Analyte was flowed over the chip at 50 μl/min with a contact time of 60 s and a dissociation time of 120 s. A duplicate injection of one concentration and a buffer injection (blank) were used for assessing chip surface performance and double referencing, respectively. […] Kinetic constants and KD values (M) were calculated from local fittings using 1:1 kinetics binding model for peptide (analyte) binding to Nb–biotin on the BIAevaluation software (Cytiva).

[1] = tested on: Nb6E (A2AR-Nb6E-ALFA) on HEK293 cells; assay: Flow cytometry competition binding against FAM-6E-C14 on HEK293 cells; parameters: species or system human; details: peptides 10-0.01 μM vs 10 nM FAM-6E-C14, 30 m, median AF647 fluorescence
Procedure: Human embryonic kidney 293 cells stably expressing a cell surface protein fused with Nb6E (A2AR-Nb6E-ALFA, described previously ([25])) were cultured in Dulbecco's modified Eagle's media containing 10% fetal bovine serum (Thermo; #A5256801) and 1X penicillin–streptomycin (Thermo; #15140-122). Binding assays were performed as described previously ([25]). Briefly, cells were suspended in 2% bovine serum albumin (BSA) in 1X PBS (w/v) (BSA-PBS) with variable concentrations of unlabeled variant 6E peptides (10–0.01 μM) and 10 nM fluorescein-labeled 6E peptide (FAM-6E-C14) for 30 m followed by 2x washing with BSA-PBS, and subsequent staining with antifluorescein Ab conjugated with AlexaFluor647 (1.5:1000 dilution in BSA-PBS; Jackson ImmunoResearch; #200-602-037). Cells were incubated again for 30 m, pelleted, washed, and analyzed by flow cytometry on a CytoFlex flow cytometer (Beckman Coulter). Cell labeling intensity was monitored in the FL4-APC channel. Live cells were identified and gated based on forward scatter–side scatter profile. […] Median fluorescence intensity for cell counts observed in the APC channel for each sample was calculated from histograms. Median fluorescence intensity values obtained from technical replicates of the same sample were averaged and plotted against the corresponding concentration of the variant 6E peptide.

Nb6E [2] = details: cited from earlier work
Nb6E [3] = assay: SPR analysis of 6E variant peptides binding to immobilized Nb6E-biotin
Procedure: as §1, §2

Compound	Kd (Nb127)	rank of binding affinities (competition binding assay) [1]	experimental binding to Nb6E (earlier work) (Nb6E [2])	rank of binding affinities (SPR) (Nb6E [3])
NCCCC[C@H](NC(=O)[C@H](Cc1c[nH]c2ccccc12)NC(=O)[C@H](Cc1ccccc1)NC(=O)[C@H](CC(=O)O)NC(=O)[C@H](CCC(=O)O)NC(=O)[C@H](Cc1ccccc1)NC(=O)[C@@H](N)CO)C(=O)NCC(=O)N[C@@H](CCC(=O)O)C(=O)N[C@@H](CC(=O)O)C(N)=O [127-tag] (H-SFEDFWKGED-NH2)	0.014 µM	–	–	–
CC[C@H](C)[C@H](NC(=O)[C@H](CCC(N)=O)NC(=O)[C@H](CCCNC(=N)N)NC(=O)[C@H](C)NC(=O)[C@H](CC(C)C)NC(=O)[C@H](CCC(=O)O)NC(=O)[C@H](CCCCN)NC(=O)[C@H](C)NC(=O)[C@H](CCC(=O)O)NC(=O)[C@H](CCC(N)=O)NC(=O)[C@H](CC(=O)O)NC(=O)[C@H](C)NC(=O)[C@@H](N)CCC(N)=O)C(=O)N[C@@H](CO)C(N)=O [6E-L9 (WT)] (H-QADQEAKELARQIS-NH2)	–	6E-M9 > 6E-WT > 6E-F9	substantially higher affinity than the 6E-A9 variant	6E-M9 > 6E-WT > 6E-F9
CC[C@H](C)[C@H](NC(=O)[C@H](CCC(N)=O)NC(=O)[C@H](CCCNC(=N)N)NC(=O)[C@H](C)NC(=O)[C@H](CCSC)NC(=O)[C@H](CCC(=O)O)NC(=O)[C@H](CCCCN)NC(=O)[C@H](C)NC(=O)[C@H](CCC(=O)O)NC(=O)[C@H](CCC(N)=O)NC(=O)[C@H](CC(=O)O)NC(=O)[C@H](C)NC(=O)[C@H](CCC(N)=O)NC(=O)CNC(=O)CNC(=O)CN)C(=O)N[C@@H](CO)C(N)=O [6E-M9] (H-GGGQADQEAKEMARQIS-NH2)	–	6E-M9 > 6E-WT > 6E-F9	–	6E-M9 > 6E-WT > 6E-F9
